Source: patent publication US8859569B2, “Substituted annellated pyrimidines and use thereof” (Bayer Pharma Aktiengesellschaft, priority 2011, dated 2014)

Assays:
[1] = molecular target: T1, recombinant guanylate cyclase reporter cell line (Rattus norvegicus, UniProt P19686+P20595); test: Action on recombinant guanylate cyclase reporter cell line; assay type: cell-based
T1 construct: expressed in transfected cells
T1 sequence (P20595 1-619): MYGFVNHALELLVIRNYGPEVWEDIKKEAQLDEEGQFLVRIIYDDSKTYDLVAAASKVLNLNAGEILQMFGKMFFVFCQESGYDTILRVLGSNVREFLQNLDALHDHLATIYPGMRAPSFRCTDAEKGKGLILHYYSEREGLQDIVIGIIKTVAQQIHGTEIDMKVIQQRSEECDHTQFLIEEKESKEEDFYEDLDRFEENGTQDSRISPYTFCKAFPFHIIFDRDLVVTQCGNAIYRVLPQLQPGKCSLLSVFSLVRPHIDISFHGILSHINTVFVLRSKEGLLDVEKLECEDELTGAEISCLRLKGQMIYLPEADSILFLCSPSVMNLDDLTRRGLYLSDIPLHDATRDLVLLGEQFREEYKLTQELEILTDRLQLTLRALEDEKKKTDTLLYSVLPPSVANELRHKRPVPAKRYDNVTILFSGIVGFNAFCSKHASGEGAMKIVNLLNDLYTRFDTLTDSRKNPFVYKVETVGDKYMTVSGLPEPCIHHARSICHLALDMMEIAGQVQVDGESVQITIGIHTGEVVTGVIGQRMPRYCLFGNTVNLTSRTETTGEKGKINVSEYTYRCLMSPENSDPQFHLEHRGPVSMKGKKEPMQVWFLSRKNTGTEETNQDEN
T1 sequence (P19686 1-690): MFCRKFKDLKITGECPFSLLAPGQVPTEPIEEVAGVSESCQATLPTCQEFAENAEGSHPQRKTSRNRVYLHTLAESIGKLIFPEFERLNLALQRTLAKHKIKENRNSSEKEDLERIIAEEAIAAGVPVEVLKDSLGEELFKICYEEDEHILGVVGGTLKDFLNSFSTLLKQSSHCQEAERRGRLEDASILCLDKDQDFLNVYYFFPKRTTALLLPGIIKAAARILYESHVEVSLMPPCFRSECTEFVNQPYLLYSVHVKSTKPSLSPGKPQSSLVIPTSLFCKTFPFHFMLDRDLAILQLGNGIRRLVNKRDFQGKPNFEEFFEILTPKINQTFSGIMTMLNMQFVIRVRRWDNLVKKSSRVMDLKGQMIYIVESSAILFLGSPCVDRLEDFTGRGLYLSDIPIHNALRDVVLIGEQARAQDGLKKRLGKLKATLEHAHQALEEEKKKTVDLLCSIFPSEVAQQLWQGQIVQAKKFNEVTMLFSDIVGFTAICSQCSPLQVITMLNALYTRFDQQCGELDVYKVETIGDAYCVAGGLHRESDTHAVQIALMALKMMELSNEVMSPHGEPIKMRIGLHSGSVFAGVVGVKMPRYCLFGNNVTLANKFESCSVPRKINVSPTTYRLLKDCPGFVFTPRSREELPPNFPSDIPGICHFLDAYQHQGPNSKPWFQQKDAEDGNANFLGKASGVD
Method: B-2. Action on Recombinant Guanylate Cyclase Reporter Cell Line
The cellular action of the compounds according to the invention is determined on a recombinant guanylate cyclase reporter cell line, as described in F. Wunder et al., Anal. Biochem. 339, 104-112 (2005).

[2] = molecular target: T2, human phosphodiesterase 5 (PDE-5) (Homo sapiens, UniProt O76074); test: Inhibition of human phosphodiesterase 5 (PDE-5), SPA assay; assay type: biochemical; details: PDE-5 preparation from human platelets, [8-3H]cGMP substrate
T2 construct: PDE-5 preparations are obtained from human platelets by lysis; from tissue; host or cells: human platelets
Summary of the method: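 PDE-5 partially purified from human platelets by Mono Q chromatography, diluted so under 70% of [8-3H]cGMP (0.025 μCi) converted. Compounds at 4 μM to 0.0018 μM final, Tris-HCl pH 7.5 with MgCl2, 60 min at room temperature. Yttrium SPA beads stop reaction; IC50 from concentration–inhibition plots.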

aorta rings = test: Vessel-relaxing action in vitro (aorta rings, phenylephrine contraction); details: concentration required to reduce phenylephrine-induced contraction of rabbit aorta rings by 50%
Summary of the method: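 Rabbit aortic rings 1.5 mm wide were held under preload in carbogen-gassed Krebs-Henseleit at 37 °C and contracted with cumulative phenylephrine. Test substance was added in rising doses on successive passes, each compared with the preceding control contraction. IC50 is the concentration that halves contraction, with 0.1% DMSO in the bath.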

SMILES | MEC (minimal effective concentration) [1] [μm] | IC50 [2] [nM] | IC50 (aorta rings; Oryctolagus cuniculus) [nM] | IC50 (aorta rings) [nM]
CC1(C)C(=O)Nc2nc(-c3nc(Cc4ccccc4F)c4ncccn34)nc(NCCC(F)(F)F)c21 [Example 39, 2-[8-(2-Fluorobenzyl)imidazo[1,5-a]pyrimidin-6-yl]-5,5-dimethyl-4-[(3,3,3-trifluoropropyl)amino]-5,7-dihydro-6H-pyrrolo[2,3-d]pyrimidin-6-one] | 0.1 | 88 | 618 | –
CC1(C)C(=O)Nc2nc(-c3nn(Cc4ccccc4F)c4ncc(F)cc34)nc(NCC(F)(F)F)c21 [Example 11, 2-[5-Fluoro-1-(2-fluorobenzyl)-1H-pyrazolo[3,4-b]pyridin-3-yl]-5,5-dimethyl-4-[(2,2,2-trifluoroethyl)amino]-5,7-dihydro-6H-pyrrolo[2,3-d]pyrimidin-6-one] | 0.3 | 48 | 663 | –
CC1(C)C(=O)Nc2nc(-c3nn(Cc4ccccc4F)c4ncc(F)cc34)nc(NCC3(O)CC3)c21 [Example 98, 2-[5-Fluoro-1-(2-fluorobenzyl)-1H-pyrazolo[3,4-b]pyridin-3-yl]-4-{[(1-hydroxycyclopropyl)methyl]amino}-5,5-dimethyl-5,7-dihydro-6H-pyrrolo[2,3-d]pyrimidin-6-one] | 0.01 | 4 | 214 | –
CC1(C)C(=O)Nc2nc(-c3nn(Cc4ccccc4F)c4ncccc34)nc(OCCO)c21 [Example 117, 2-[1-(2-Fluorobenzyl)-1H-pyrazolo[3,4-b]pyridin-3-yl]-4-(2-hydroxyethoxy)-5,5-dimethyl-5,7-dihydro-6H-pyrrolo[2,3-d]pyrimidin-6-one] | 0.03 | 52 | 38 | –
CC(=O)NC1CCN(c2nc(-c3nn(Cc4ccccc4F)c4ncccc34)nc3c2C(C)(C)C(=O)N3)C1 (stereo not drawn) [Example 94, N-(1-{2-[1-(2-Fluorobenzyl)-1H-pyrazolo[3,4-b]pyridin-3-yl]-5,5-dimethyl-6-oxo-6,7-dihydro-5H-pyrrolo[2,3-d]pyrimidin-4-yl}pyrrolidin-3-yl)acetamide] | 0.1 | 140 | 277 | –
CC1(C)C(=O)Nc2nc(-c3nn(Cc4ccccc4F)c4ncccc34)nc(OCC3CC3)c21 [Example 113, 4-(Cyclopropylmethoxy)-2-[1-(2-fluorobenzyl)-1H-pyrazolo[3,4-b]pyridin-3-yl]-5,5-dimethyl-5,7-dihydro-6H-pyrrolo[2,3-d]pyrimidin-6-one] | 0.1 | 120 | 1960 | –
CC1(C)C(=O)Nc2nc(-c3nn(Cc4ccccc4F)c4ncccc34)nc(Oc3cn[nH]c3)c21 [Example 27, 2-[1-(2-Fluorobenzyl)-1H-pyrazolo[3,4-b]pyridin-3-yl]-5,5-dimethyl-4-(1H-pyrazol-4-yloxy)-5,7-dihydro-6H-pyrrolo[2,3-d]pyrimidin-6-one] | 0.1 | 4 | 1470 | –
CC1(C)C(=O)Nc2nc(-c3nn(Cc4ncccc4F)c4ncc(F)cc34)nc(NCCC(F)(F)F)c21 [Example 12, 2-{5-Fluoro-1-[(3-fluoropyridin-2-yl)methyl]-1H-pyrazolo[3,4-b]pyridin-3-yl}-5,5-dimethyl-4-[(3,3,3-trifluoropropyl)amino]-5,7-dihydro-6H-pyrrolo[2,3-d]pyrimidin-6-one] | 0.1 | 50 | 631 | –
CC1(C)C(=O)Nc2nc(-c3nn(Cc4ccccc4F)c4ncc(F)cc34)nc(NCC(O)C(F)(F)F)c21 (single isomer, unassigned) [Example 96-1, 2-[5-Fluoro-1-(2-fluorobenzyl)-1H-pyrazolo[3,4-b]pyridin-3-yl]-5,5-dimethyl-4-[(3,3,3-trifluoro-2-hydroxypropyl)amino]-5,7-dihydro-6H-pyrrolo[2,3-d]pyrimidin-6-one] | 0.1 | 150 | – | 1470
CC1(C)C(=O)Nc2nc(-c3nn(Cc4ccccc4F)c4ncccc34)nc(N[C@H]3CC[C@H](O)CC3)c21 [Example 95, 2-[1-(2-Fluorobenzyl)-1H-pyrazolo[3,4-b]pyridin-3-yl]-4-[(trans-4-hydroxycyclohexyl)amino]-5,5-dimethyl-5,7-dihydro-6H-pyrrolo[2,3-d]pyrimidin-6-one] | 0.1 | 4 | 228 | –
CC1(C)C(=O)Nc2nc(-c3nn(Cc4ccccc4F)c4ncc(F)cc34)nc(NCC3CC3)c21 [Example 10, 4-[(Cyclopropylmethyl)amino]-2-[5-fluoro-1-(2-fluorobenzyl)-1H-pyrazolo[3,4-b]pyridin-3-yl]-5,5-dimethyl-5,7-dihydro-6H-pyrrolo[2,3-d]pyrimidin-6-one] | 0.3 | 52 | 552 | –
CC1(C)C(=O)Nc2nc(-c3nn(Cc4ccccc4F)c4ncc(F)cc34)nc(NCCO)c21 [Example 2, 2-[5-Fluoro-1-(2-fluorobenzyl)-1H-pyrazolo[3,4-b]pyridin-3-yl]-4-[(2-hydroxyethyl)amino]-5,5-dimethyl-5,7-dihydro-6H-pyrrolo[2,3-d]pyrimidin-6-one] | 0.3 | 8 | 54 | –
Cc1ncc2c(-c3nc(NCCC(F)(F)F)c4c(n3)NC(=O)C4(C)C)nn(Cc3ccccc3F)c2n1 [Example 108, 2-[1-(2-Fluorobenzyl)-6-methyl-1H-pyrazolo[3,4-d]pyrimidin-3-yl]-5,5-dimethyl-4-[(3,3,3-trifluoropropyl)amino]-5,7-dihydro-6H-pyrrolo[2,3-d]pyrimidin-6-one] | 0.3 | 25 | 444 | –
CC1(C)C(=O)Nc2nc(-n3nc(Cc4ccccc4F)c4cc(F)ccc43)nc(NCC3CC3)c21 [Example 38] | 0.3 | 41 | 10000 | –
CC1(C)C(=O)Nc2nc(-n3nc(Cc4ccccc4F)c4cc(F)ccc43)nc(NCCC(F)(F)F)c21 [Example 37] | 0.3 | 100 | 3870 | –
O=C1Nc2nc(-c3nn(Cc4ccccc4F)c4ncc(F)cc34)nc(NCCC(F)(F)F)c2C12CCOC2 (stereo not drawn) [Example 100, 2′-[5-Fluoro-1-(2-fluorobenzyl)-1H-pyrazolo[3,4-b]pyridin-3-yl]-4′-[(3,3,3-trifluoropropyl)amino]-4,5-dihydrospiro[furan-3,5′-pyrrolo[2,3-d]pyrimidin]-6′(7′H)-one] | 0.3 | 2800 | 4760 | –
CC1(C)C(=O)Nc2nc(-c3nn(Cc4ccccc4F)c4c3CCC4)nc(NCC(F)(F)F)c21 [Example 19, 2-[1-(2-Fluorobenzyl)-1,4,5,6-tetrahydrocyclopenta[c]pyrazol-3-yl]-5,5-dimethyl-4-[(2,2,2-trifluoroethyl)amino]-5,7-dihydro-6H-pyrrolo[2,3-d]pyrimidin-6-one] | 0.3 | 280 | 1280 | –
